The subject of the first experiment is MM1.S (multiple myeloma) cells. Briefly: In vitro cell proliferation, MM1.S multiple myeloma cells (CellTiter-Glo, ATP). Format: cell-based. The note with it: 72 hours, read-out: Prolif MM1S ATP (EC50). Here is the method:
BaF3, a murine interleukin-3 dependent pro-B cell line, parental cells, BaF3 PIM1 cells, BaF3 PIM2 cells, and MM1.S (multiple myeloma) cells were seeded at 2 k/well, 5 k/well, 5 k/well, and 10 k/well respectively, in a 384-well plate, at 45 μL/well. Test compound was added at 5 μL/well. BaF3 cells (parental and transfected) were incubated overnight, while MM1.S cells were incubated for 72 hours at 37° C., 5% CO2. […] IC50/EC50 values for the test compound were calculated.
(ATP-based viability assays read luminescence as a measure of living cells.)
The term EC50 denotes the concentration giving half of the maximal effect. As to `CCn1ncc(NC(=O)c2nc(-c3c(F)cccc3F)sc2N)c1N1CCC(N)C(OC)CC1` (single isomer, unassigned) [Example 390, 5-amino-N-[5-(4-amino-5-methoxy-azepan-1-yl)-1-ethyl-pyrazol-4-yl]-2-(2,6-difluorophenyl)thiazole-4-carboxamide], the EC50 was found to be 147 nM.

`CCOC1CCN(c2c(NC(=O)c3nc(-c4c(F)cccc4F)sc3N)cnn2C)CCC1N` (stereo not drawn) [Example 385, 5-amino-N-[5-(4-amino-5-ethoxy-azepan-1-yl)-1-methyl-pyrazol-4-yl]-2-(2,6-difluorophenyl)thiazole-4-carboxamide]: the EC50 amounted to 182 nM.

Still in this experiment, the particulars now being: Homo sapiens, MM1.S, 72 h, read-out: Prolif MM1S ATP (EC50).
Regarding `CCn1ncc(NC(=O)c2nc(-c3c(F)cccc3F)sc2N)c1N1CCC(N)C(F)CC1` (single isomer, unassigned) [Example 370, 5-amino-N-[5-(4-amino-5-fluoro-azepan-1-yl)-1-ethyl-pyrazol-4-yl]-2-(2,6-difluorophenyl)thiazole-4-carboxamide], the EC50 was determined as 118 nM.

`Cn1ncc(NC(=O)c2nc(-c3c(F)cccc3F)sc2N)c1N1CCC(O)CC(F)(F)C1` (single isomer, unassigned) [Example 371, 5-amino-N-[5-(3,3-difluoro-5-hydroxy-azepan-1-yl)-1-methyl-pyrazol-4-yl]-2-(2,6-difluorophenyl)thiazole-4-carboxamide]: the EC50 turned out to be 1300 nM.

`Cn1ncc(NC(=O)c2nc(-c3c(F)cccc3F)sc2N)c1C1CC[C@@H](N)[C@@H](F)CC1` (single isomer, unassigned) [Example 381]: the EC50 worked out at 3500 nM.

In the case of `Cn1ncc(NC(=O)c2nc(-c3c(F)cccc3F)sc2N)c1N1CCC2NCCOC2CC1` (single isomer, unassigned) [Example 397, N-[5-(3,4,4a,5,6,8,9,9a-octahydro-2H-[1,4]oxazino[2,3-d]azepin-7-yl)-1-methyl-pyrazol-4-yl]-5-amino-2-(2,6-difluorophenyl)thiazole-4-carboxamide], the EC50 is 6400 nM.

`Cn1ncc(NC(=O)c2nc(-c3c(F)cccc3F)sc2N)c1N1CC[C@@H](N)[C@H](F)CC1` [Example 139, 5-amino-N-(5-((4R,5R)-4-amino-5-fluoroazepan-1-yl)-1-methyl-1H-pyrazol-4-yl)-2-(2,6-difluorophenyl)thiazole-4-carboxamide]: the EC50 came out at 68.4 nM.

For `CO[C@@H]1[C@H](N)CCN(c2c(NC(=O)c3nc(-c4c(F)cccc4F)sc3N)cnn2C)CC12CC2` [Example 516, 5-amino-N-(5-((8R,9S)-8-amino-9-methoxy-5-azaspiro[2.6]nonan-5-yl)-1-methyl-1H-pyrazol-4-yl)-2-(2,6-difluorophenyl)thiazole-4-carboxamide], the EC50 worked out at 5700 nM.

Another experiment deals with BaF3 parental cells. Kind of experiment: In vitro cell proliferation, BaF3 parental line + IL3 (CellTiter-Glo). Format: cell-based, murine. The note with it: BaF3 parental cells with IL-3, incubated overnight; read-out: Prolif BaF3 + IL3 (IC50).
Protocol: BaF3 parental line was obtained from the DSMZ repository. BaF3 lines transfected with PIM 1 or PIM2 were generated. Mouse IL-3 was purchased from R&D Systems. G418 was purchased from Clontech. Media for BaF3 parental line contained RPMI, 10% FBS, 2 mM L-Glutamine, 2 ng/mL mIL-3. Media for BaF3 PIM1 & 2 lines contained RPMI, 10% FBS, 2 mM L-Glutamine, 250 μg/mL.
BaF3, a murine interleukin-3 dependent pro-B cell line, parental cells, BaF3 PIM1 cells, BaF3 PIM2 cells, and MM1.S (multiple myeloma) cells were seeded at 2 k/well, 5 k/well, 5 k/well, and 10 k/well respectively, in a 384-well plate, at 45 μL/well. Test compound was added at 5 μL/well. BaF3 cells (parental and transfected) were incubated overnight, while MM1.S cells were incubated for 72 hours at 37° C., 5% CO2. CELL TITER GLO® Reagent (Promega) was added at 50 μL/well, the plates were incubated for 30 minutes, and their luminescence read on an HT Analyst. IC50/EC50 values for the test compound were calculated.
The term IC50 denotes the concentration needed to halve the response being measured. With `Cn1ncc(NC(=O)c2nc(-c3c(F)cccc3F)sc2N)c1N1CCC(N)C(O)CC1` (single isomer, unassigned) [Example 333, 5-amino-N-[5-(4-amino-5-hydroxy-azepan-1-yl)-1-methyl-pyrazol-4-yl]-2-(2,6-difluorophenyl)thiazole-4-carboxamide], the IC50 was above 25000 nM.

The same experiment, now with this note: Mus musculus, BaF3, BaF3 parental cells with IL-3, incubated overnight; read-out: Prolif BaF3 + IL3 (IC50).
In the case of `Cn1ncc(NC(=O)c2nc(-c3c(F)cccc3F)sc2N)c1N1CCC(N)C(C(F)F)CC1` (single isomer, unassigned) [Example 511, 5-amino-N-[5-[4-amino-5-(difluoromethyl)azepan-1-yl]-1-methyl-pyrazol-4-yl]-2-(2,6-difluorophenyl)thiazole-4-carboxamide], the IC50 was determined as 24300 nM.

Regarding `CC(=O)O[C@H]1CCN(c2c(NC(=O)c3nc(-c4c(F)cccc4F)sc3N)cnn2C)CC[C@H]1N` [Example 487, [(4S,5R)-5-amino-1-[4-[[5-amino-2-(2,6-difluorophenyl)thiazole-4-carbonyl]amino]-2-methyl-pyrazol-3-yl]azepan-4-yl]acetate], the IC50 is 20100 nM.

Turning to `Cn1ncc(NC(=O)c2nc(-c3c(F)cccc3F)sc2N)c1N1CC[C@@H]2OC(=O)N[C@]2(C)CC1` [Example 509, 5-amino-2-(2,6-difluorophenyl)-N-(1-methyl-5-((3aR,8aS)-3a-methyl-2-oxotetrahydro-2H-oxazolo[5,4-d]azepin-6(7H,8H,8aH)-yl)-1H-pyrazol-4-yl)thiazole-4-carboxamide], the IC50 is above 25000 nM.

In the next experiment the target is PIM1 (Homo sapiens (Human), UniProt P11309). Briefly: Pim kinase inhibition, PIM1 LC3K (Example 901). Format: biochemical.
Sequence of PIM1 (P11309 whole entry): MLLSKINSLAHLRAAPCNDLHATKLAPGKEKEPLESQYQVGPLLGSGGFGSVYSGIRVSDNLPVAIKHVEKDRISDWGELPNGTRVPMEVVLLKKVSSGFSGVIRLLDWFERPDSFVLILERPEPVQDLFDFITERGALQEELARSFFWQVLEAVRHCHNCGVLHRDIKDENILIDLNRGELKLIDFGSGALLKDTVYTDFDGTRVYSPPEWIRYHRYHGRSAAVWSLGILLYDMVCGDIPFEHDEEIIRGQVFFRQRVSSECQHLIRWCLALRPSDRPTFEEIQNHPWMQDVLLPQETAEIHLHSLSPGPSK
Conditions: not given
The Ki is a dissociation constant, usually derived from enzyme kinetics or from competition with a known ligand. Higher therefore signals lower affinity. Take `CCn1ncc(NC(=O)c2nc(-c3c(F)cccc3F)sc2N)c1N1CCC(N)C(F)CC1` (single isomer, unassigned) [Example 370, 5-amino-N-[5-(4-amino-5-fluoro-azepan-1-yl)-1-ethyl-pyrazol-4-yl]-2-(2,6-difluorophenyl)thiazole-4-carboxamide]: the affinity, expressed as Ki, was 0.093 nM.

In turn, `CCn1ncc(NC(=O)c2nc(-c3c(F)cccc3F)sc2N)c1N1CCC(N)C(OC)CC1` (single isomer, unassigned) [Example 390, 5-amino-N-[5-(4-amino-5-methoxy-azepan-1-yl)-1-ethyl-pyrazol-4-yl]-2-(2,6-difluorophenyl)thiazole-4-carboxamide] yielded a Ki of 0.192 nM.

The compound `Cn1ncc(NC(=O)c2nc(-c3ccnc(F)c3)sc2N)c1N1CCC[C@H](N)CC1` [Example 417, 5-amino-N-[5-[(4S)-4-aminoazepan-1-yl]-1-methyl-pyrazol-4-yl]-2-(2-fluoro-4-pyridyl)thiazole-4-carboxamide] registered a Ki of 2.12 nM.

Take `Cn1cc(-c2nc(C(=O)Nc3cnn(C)c3N3CCC[C@H](N)CC3)c(N)s2)cn1` [Example 419, 5-amino-N-[5-[(4S)-4-aminoazepan-1-yl]-1-methyl-pyrazol-4-yl]-2-(1-methylpyrazol-4-yl)thiazole-4-carboxamide]: the Ki is 0.785 nM.

For the compound `Cn1ncc(NC(=O)c2nc(-c3cncc(F)c3)sc2N)c1N1CCC[C@H](N)CC1` [Example 420, 5-amino-N-[5-[(4S)-4-aminoazepan-1-yl]-1-methyl-pyrazol-4-yl]-2-(5-fluoro-3-pyridyl)thiazole-4-carboxamide], the affinity corresponds to a Ki of 4.25 nM.

Turning to `Cc1noc(C)c1-c1nc(C(=O)Nc2cnn(C)c2N2CCC[C@H](N)CC2)c(N)s1` [Example 421, 5-amino-N-[5-[(4S)-4-aminoazepan-1-yl]-1-methyl-pyrazol-4-yl]-2-(3,5-dimethylisoxazol-4-yl)thiazole-4-carboxamide], the affinity corresponds to a Ki of 4.37 nM.

On to `COC1CCC2(c3c(NC(=O)c4nc(-c5ccccc5F)sc4N)cnn3C)CCC1N2` (stereo not drawn) [Example 423, 5-amino-2-(2-fluorophenyl)-N-[5-(2-methoxy-8-azabicyclo[3.2.1]octan-5-yl)-1-methyl-pyrazol-4-yl]thiazole-4-carboxamide], for which the affinity corresponds to a Ki of 0.362 nM. Compared with the last compound, the Ki is about 12-fold lower.

Consider `COc1nccc(C)c1-c1nc(C(=O)Nc2cnn(C)c2N2CCC[C@H](N)CC2)c(N)s1` [Example 427, 5-amino-N-[5-[(4S)-4-aminoazepan-1-yl]-1-methyl-pyrazol-4-yl]-2-(2-methoxy-4-methyl-3-pyridyl)thiazole-4-carboxamide], for which the Ki worked out at 3.7 nM.

For the compound `Cc1ncccc1-c1nc(C(=O)Nc2cnn(C)c2N2CC[C@@H](N)[C@H](F)CC2)c(N)s1` [Example 430, 5-amino-N-[5-[(4R,5R)-4-amino-5-fluoro-azepan-1-yl]-1-methyl-pyrazol-4-yl]-2-(2-methyl-3-pyridyl)thiazole-4-carboxamide], the Ki amounted to 1.17 nM.

`Cc1cc(-c2nc(C(=O)Nc3cnn(C)c3N3CC[C@@H](N)[C@H](F)CC3)c(N)s2)ccn1` [Example 431, 5-amino-N-[5-[(4R,5R)-4-amino-5-fluoro-azepan-1-yl]-1-methyl-pyrazol-4-yl]-2-(2-methyl-4-pyridyl)thiazole-4-carboxamide] yielded a Ki of 1.04 nM.

In the case of `Cc1nn(C)cc1-c1nc(C(=O)Nc2cnn(C)c2N2CC[C@@H](N)[C@H](F)CC2)c(N)s1` [Example 437, 5-amino-N-[5-[(4R,5R)-4-amino-5-fluoro-azepan-1-yl]-1-methyl-pyrazol-4-yl]-2-(1,3-dimethylpyrazol-4-yl)thiazole-4-carboxamide], the Ki came to 0.477 nM. Compared with the last compound, the Ki is about 2.2-fold lower.

`Cn1ncc(NC(=O)c2nc(-c3cc(C#N)ccc3F)sc2N)c1N1CC[C@@H](N)[C@H](F)CC1` [Example 442, 5-amino-N-[5-[(4R,5R)-4-amino-5-fluoro-azepan-1-yl]-1-methyl-pyrazol-4-yl]-2-(5-cyano-2-fluoro-phenyl)thiazole-4-carboxamide] displayed a Ki of 1.08 nM.

`Cc1cc(-c2nc(C(=O)Nc3cnn(C)c3N3CC[C@@H](N)[C@H](F)CC3)c(N)s2)cc(C)n1` [Example 443, 5-amino-N-[5-[(4R,5R)-4-amino-5-fluoro-azepan-1-yl]-1-methyl-pyrazol-4-yl]-2-(2,6-dimethyl-4-pyridyl)thiazole-4-carboxamide] returned a Ki of 2.54 nM.

`Cn1ncc(NC(=O)c2nc(-c3cncc(C#N)c3)sc2N)c1N1CC[C@@H](N)[C@H](F)CC1` [Example 444, 5-amino-N-[5-[(4R,5R)-4-amino-5-fluoro-azepan-1-yl]-1-methyl-pyrazol-4-yl]-2-(5-cyano-3-pyridyl)thiazole-4-carboxamide] came in with an inhibitory constant (Ki) of 35.4 nM.

In the case of `Cc1cnc(C)c(-c2nc(C(=O)Nc3cnn(C)c3N3CC[C@@H](N)[C@H](F)CC3)c(N)s2)c1` [Example 445, 5-amino-N-[5-[(4R,5R)-4-amino-5-fluoro-azepan-1-yl]-1-methyl-pyrazol-4-yl]-2-(2,5-dimethyl-3-pyridyl)thiazole-4-carboxamide], affinity was put at a Ki of 0.446 nM.

`Cn1ncc(NC(=O)c2nc(-c3c(F)cncc3F)sc2N)c1N1CC[C@H](N)[C@@H](F)CC1` [Example 471, 5-amino-N-[5-[(4S,5S)-4-amino-5-fluoro-azepan-1-yl]-1-methyl-pyrazol-4-yl]-2-(3,5-difluoro-4-pyridyl)thiazole-4-carboxamide] registered a Ki of 0.242 nM.

`COC1(C)CC(N)CCN(c2c(NC(=O)c3nc(-c4c(F)cncc4F)sc3N)cnn2C)C1` (stereo not drawn) [Example 474, 5-amino-N-[5-(5-amino-3-methoxy-3-methyl-azepan-1-yl)-1-methyl-pyrazol-4-yl]-2-(3,5-difluoro-4-pyridyl)thiazole-4-carboxamide] returned an inhibition constant Ki of 0.425 nM.

On to `COC1(C)CC(N)CCN(c2c(NC(=O)c3nc(-c4ccncc4F)sc3N)cnn2C)C1` (stereo not drawn) [Example 475, 5-amino-N-[5-(5-amino-3-methoxy-3-methyl-azepan-1-yl)-1-methyl-pyrazol-4-yl]-2-(3-fluoro-4-pyridyl)thiazole-4-carboxamide], for which the Ki is 0.212 nM. Compared with the last compound, the Ki is about 2-fold lower.

The record behind these values is patent US8614206B2 (Genentech, Inc., priority 2011, dated 2013).
